Source: ChEMBL document CHEMBL1138545, “Synthesis and antimicrobial activities of some new triazolothiadiazoles bearing 4-methylthiobenzyl moiety” (2009)
Values after ≈ are worked out from the molar mass of the structure shown.

Experiments:
[1] = system: Klebsiella pneumoniae; assay: Antibacterial activity against Klebsiella pneumoniae at 10 ug/mL after 24 hrs by the disk diffusion method; format: functional
[2] = system: Escherichia coli; assay: microbe, parasite or virus in culture; details: ATTC 25922, 24 h
Description: Antibacterial activity against Escherichia coli ATTC 25922 at 10 ug/mL after 24 hrs by the disk diffusion method

[3] = system: Staphylococcus aureus; assay: microbe, parasite or virus in culture; details: ATTC 25922, 24 h
Description: Antibacterial activity against Staphylococcus aureus ATTC 25922 at 10 ug/mL after 24 hrs by the disk diffusion method

[4] = system: Pseudomonas aeruginosa; assay: microbe, parasite or virus in culture; details: ATTC 27853, 24 h, read-out: IZ
Description: Antibacterial activity against Pseudomonas aeruginosa ATTC 27853 at 10 ug/mL after 24 hrs by the disk diffusion method

[5] = system: Escherichia coli; assay: Antibacterial activity against Escherichia coli ATTC 25922 after 24 hrs by the disk diffusion method; format: functional; details: for MIC: Escherichia coli, ATTC 25922, 24 h
[6] = system: Staphylococcus aureus; assay: Antibacterial activity against Staphylococcus aureus ATTC […] after 24 hrs by the disk diffusion method; format: functional; details: for MIC: Staphylococcus aureus, 24 h
[7] = system: Pseudomonas aeruginosa; assay: Antibacterial activity against Pseudomonas aeruginosa ATTC 27853 after 24 hrs by the disk diffusion method; format: functional; details: for MIC: Pseudomonas aeruginosa, ATTC 27853, 24 h
[8] = system: Klebsiella pneumoniae; assay: Antibacterial activity against Klebsiella pneumoniae after 24 hrs by the disk diffusion method; format: functional; details: for MIC: Klebsiella pneumoniae, 24 h
[9] = system: Candida albicans; assay: Antifungal activity against Candida albicans NICM 300 after 3 to days by serial plate dilution method; format: functional; details: for MIC: Candida albicans, NICM 300
[10] = system: Aspergillus fumigatus; assay: Antifungal activity against Aspergillus fumigatus NICM 902 after 3 to days by serial plate dilution method; format: functional; details: for MIC: Aspergillus fumigatus, NICM 902
[11] = system: Aspergillus flavus; assay: Antifungal activity against Aspergillus flavus NICM 524 after 3 to days by serial plate dilution method; format: functional; details: for MIC: Aspergillus flavus, NICM 524
[12] = system: Trichophyton mentagrophytes; assay: Antifungal activity against Trichophyton mentagrophytes after 3 to days by serial plate dilution method; format: functional; details: for MIC: Trichophyton mentagrophytes

| MIC [5] [µg/mL] | MIC [6] [µg/mL] | MIC [7] [µg/mL] | MIC [8] [µg/mL] | MIC [9] [µg/mL] | MIC [10] [µg/mL] | MIC [11] [µg/mL] | MIC [12] [µg/mL] | SMILES | inhibition zone (IZ) [5] [mm] | inhibition zone (IZ) [6] [mm] | inhibition zone (IZ) [7] [mm] | inhibition zone (IZ) [8] [mm] | diameter of the inhibition zone (DIZ) [9] [mm] | diameter of the inhibition zone (DIZ) [10] [mm] | diameter of the inhibition zone (DIZ) [11] [mm] | diameter of the inhibition zone (DIZ) [12] [mm] | other results |
| --- | --- | --- | --- | --- | --- | --- | --- | --- | --- | --- | --- | --- | --- | --- | --- | --- | --- |
| – | – | – | – | – | – | – | – | O=C(O)c1cn(C2CC2)c2cc(N3CCNCC3)c(F)cc2c1=O [CIPROFLOXACIN] | – | – | – | – | – | – | – | – | MIC [1]: 6 µg/mL (≈ 18.1 µM); zone of inhibition at 10 µg/mL ([1]; read-out: IZ): 25 mm; MIC [2]: 6 µg/mL (≈ 18.1 µM); MIC [3]: 12.5 µg/mL (≈ 37.7 µM); zone of inhibition at 10 µg/mL ([3]; read-out: IZ): 19 mm; zone of inhibition at 10 µg/mL [4]: 18 mm |
| 6 (≈ 14.1 µM) | 12.5 (≈ 29.4 µM) | 12.5 (≈ 29.4 µM) | 6 (≈ 14.1 µM) | 6 (≈ 14.1 µM) | 6 (≈ 14.1 µM) | 6 (≈ 14.1 µM) | 6 (≈ 14.1 µM) | CSc1ccc(Cc2nnc3sc(-c4cc(F)c(Cl)cc4Cl)nn23)cc1 | 20 | 19 | 17 | 23 | 20 | 21 | 18 | 19 | – |
| 6 (≈ 14.3 µM) | 12.5 (≈ 29.9 µM) | 6 (≈ 14.3 µM) | 6 (≈ 14.3 µM) | 25 (≈ 59.7 µM) | 12.5 (≈ 29.9 µM) | 25 (≈ 59.7 µM) | 12.5 (≈ 29.9 µM) | CSc1ccc(Cc2nnc3sc(-c4ccc(-c5ccc(C)cc5)o4)nn23)cc1 | 18 | 18 | 18 | 23 | 14 | 21 | 11 | 17 | – |
| 25 (≈ 59.9 µM) | 25 (≈ 59.9 µM) | 25 (≈ 59.9 µM) | 25 (≈ 59.9 µM) | 25 (≈ 59.9 µM) | 25 (≈ 59.9 µM) | 12.5 (≈ 30 µM) | 25 (≈ 59.9 µM) | CSc1ccc(Cc2nnc3sc(-c4ccc(Br)cc4)nn23)cc1 | 13 | 15 | 16 | 20 | 13 | 14 | 15 | 13 | – |
| 12.5 (≈ 28.3 µM) | 12.5 (≈ 28.3 µM) | 12.5 (≈ 28.3 µM) | 6 (≈ 13.6 µM) | 25 (≈ 56.6 µM) | 25 (≈ 56.6 µM) | 25 (≈ 56.6 µM) | 25 (≈ 56.6 µM) | CSc1ccc(Cc2nnc3sc(-c4ccc(Cl)c(Cl)c4Cl)nn23)cc1 | 19 | 18 | 17 | 24 | 10 | 13 | 15 | 17 | – |
